In PubChem BioAssay AID1963962 (Molecular Pharmacology Branch, DTP, NCI, 2024):

System: 967376-340-R-J2-PDC multicell spheroid viability
Assay: Anticancer human tumor 967376-340-R-J2-PDC patient-derived colon adenocarcinoma cell line growth inhibition [PI3K]
Settings: for IC50: curve of first compound; for viability, T/C: stronger effect = lower value
Method in brief: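 Combination activity was assessed by viability in multicellular tumor spheroids carrying HUVEC and MSC components. Agents were tested with PI3K inhibitors from a Cmax-based top dose (or 10 microM) downward in half-log increments.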

[1] = second compound 0.00316 µM, first compound 0.0316 µM
[2] = second compound 0.00316 µM, first compound 0.1 µM
[3] = second compound 0.01 µM, first compound 0.0316 µM
[4] = second compound 0.01 µM, first compound 0.1 µM
[5] = second compound 0.0316 µM, first compound 0.00316 µM
[6] = second compound 0.0316 µM, first compound 0.01 µM
[7] = second compound 0.0316 µM, first compound 0.0316 µM
[8] = second compound 0.0316 µM, first compound 0.1 µM
[9] = second compound 0.1 µM, first compound 0.00316 µM
[10] = second compound 0.1 µM, first compound 0.01 µM
[11] = second compound 0.1 µM, first compound 0.0316 µM
[12] = second compound 0.1 µM, first compound 0.1 µM
[13] = second compound 0.316 µM, first compound 0.00316 µM
[14] = second compound 0.316 µM, first compound 0.01 µM
[15] = second compound 0.316 µM, first compound 0.0316 µM
[16] = second compound 0.316 µM, first compound 0.1 µM
[17] = second compound 1 µM, first compound 0.00316 µM
[18] = second compound 1 µM, first compound 0.01 µM
[19] = second compound 1 µM, first compound 0.0316 µM
[20] = second compound 1 µM, first compound 0.1 µM
[21] = second compound 0.0316 µM, first compound 0.316 µM
[22] = second compound 0.0316 µM, first compound 1 µM
[23] = second compound 0.0316 µM, first compound 3.16 µM
[24] = second compound 0.0316 µM, first compound 10 µM
[25] = second compound 0.1 µM, first compound 0.316 µM
[26] = second compound 0.1 µM, first compound 1 µM
[27] = second compound 0.1 µM, first compound 3.16 µM
[28] = second compound 0.1 µM, first compound 10 µM
[29] = second compound 0.316 µM, first compound 0.316 µM
[30] = second compound 0.316 µM, first compound 1 µM
[31] = second compound 0.316 µM, first compound 3.16 µM
[32] = second compound 0.316 µM, first compound 10 µM
[33] = second compound 1 µM, first compound 0.316 µM
[34] = second compound 1 µM, first compound 1 µM
[35] = second compound 1 µM, first compound 3.16 µM
[36] = second compound 1 µM, first compound 10 µM
[37] = second compound 3.16 µM, first compound 0.0316 µM
[38] = second compound 3.16 µM, first compound 0.1 µM
[39] = second compound 3.16 µM, first compound 0.316 µM
[40] = second compound 3.16 µM, first compound 1 µM
[41] = second compound 10 µM, first compound 0.0316 µM
[42] = second compound 10 µM, first compound 0.1 µM
[43] = second compound 10 µM, first compound 0.316 µM
[44] = second compound 10 µM, first compound 1 µM
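Also: spheroids exposed to agents for 7 days before read-out.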
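For viability, T/C in this document: luminescence used as surrogate of cell viability.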

Work on `CC(C)n1nc(-c2ccc3oc(N)nc3c2)c2c(N)ncnc21` + COc1c(OCCCN2CCOCC2)ccc2c3n(c(=NC(=O)c4cnc(N)nc4)nc12)CCN3 yielded an IC50 (second compound 0.00316 µM) greater than 100 nM, an IC50 (second compound 0.01 µM) of 98.1 nM and an IC50 (second compound 0.0316 µM) of 32.9 nM. The IC50 (second compound 0.1 µM) was 17.7 nM, the IC50 (second compound 0.316 µM) was 0.541 nM and the IC50 (second compound 1 µM) was less than 0.316 nM. It also gave a viability, T/C (second compound 0.00316 µM, first compound 0.000316 µM) of 85.7%, a viability, T/C (second compound 0.00316 µM, first compound 0.001 µM) of 106% and a viability, T/C (second compound 0.00316 µM, first compound 0.00316 µM) of 88.7%. For the same compound, the viability, T/C (second compound 0.00316 µM, first compound 0.01 µM) was 74.1%, the viability, T/C [1] was 76.5% and the viability, T/C [2] was 54.8%. For the same compound, the viability, T/C (second compound 0.01 µM, first compound 0.000316 µM) was 109%, the viability, T/C (second compound 0.01 µM, first compound 0.001 µM) was 97.2% and the viability, T/C (second compound 0.01 µM, first compound 0.00316 µM) was 81%. It also gave a viability, T/C (second compound 0.01 µM, first compound 0.01 µM) of 91.1%, a viability, T/C [3] of 67.3% and a viability, T/C [4] of 47.1%. The viability, T/C (second compound 0.0316 µM, first compound 0.000316 µM) was 85.9%, the viability, T/C (second compound 0.0316 µM, first compound 0.001 µM) was 83.9% and the viability, T/C [5] was 65.4%. For the same compound, the viability, T/C [6] was 63.8%, the viability, T/C [7] was 50% and the viability, T/C [8] was 39.9%. It also gave a viability, T/C (second compound 0.1 µM, first compound 0.000316 µM) of 58%, a viability, T/C (second compound 0.1 µM, first compound 0.001 µM) of 49.5% and a viability, T/C [9] of 53.9%. The viability, T/C [10] was 51.5%, the viability, T/C [11] was 47.9% and the viability, T/C [12] was 27%. The viability, T/C (second compound 0.316 µM, first compound 0.000316 µM) was 61.5%, the viability, T/C (second compound 0.316 µM, first compound 0.001 µM) was 36.3% and the viability, T/C [13] was 38%. The viability, T/C [14] was 41.4%, the viability, T/C [15] was 37.2% and the viability, T/C [16] was 21.9%. For the same compound, the viability, T/C (second compound 1 µM, first compound 0.000316 µM) was 34.9%, the viability, T/C (second compound 1 µM, first compound 0.001 µM) was 28.2% and the viability, T/C [17] was 32.1%. The viability, T/C [18] was 29.8%, the viability, T/C [19] was 31.6% and the viability, T/C [20] was 26.5%.
`Cn1nccc1Nc1nccc(-c2ccn(C(CO)c3ccc(Cl)c(F)c3)c(=O)c2)n1` (stereo not drawn) + CC(Nc1ccc2c(c1)OCCn1cc(N3C(=O)OCC3C(F)F)nc1-2)C(N)=O gave an IC50 (second compound 0.00316 µM) greater than 10000 nM, an IC50 (second compound 0.01 µM) greater than 10000 nM and an IC50 (second compound 0.0316 µM) greater than 10000 nM. For the same compound, the IC50 (second compound 0.1 µM) was greater than 10000 nM, the IC50 (second compound 0.316 µM) was greater than 10000 nM and the IC50 (second compound 1 µM) was 46.5 nM. The viability, T/C [1] was 100%, the viability, T/C [2] was 89.8% and the viability, T/C (second compound 0.00316 µM, first compound 0.316 µM) was 105%. The viability, T/C (second compound 0.00316 µM, first compound 1 µM) was 71.5%, the viability, T/C (second compound 0.00316 µM, first compound 3.16 µM) was 108% and the viability, T/C (second compound 0.00316 µM, first compound 10 µM) was 101%. The viability, T/C [3] was 107%, the viability, T/C [4] was 67.5% and the viability, T/C (second compound 0.01 µM, first compound 0.316 µM) was 81%. The viability, T/C (second compound 0.01 µM, first compound 1 µM) was 82.2%, the viability, T/C (second compound 0.01 µM, first compound 3.16 µM) was 91.8% and the viability, T/C (second compound 0.01 µM, first compound 10 µM) was 102%. For the same compound, the viability, T/C [7] was 80.8%, the viability, T/C [8] was 101% and the viability, T/C [21] was 76.8%. For the same compound, the viability, T/C [22] was 92%, the viability, T/C [23] was 70.9% and the viability, T/C [24] was 85.3%. It also gave a viability, T/C [11] of 72.3%, a viability, T/C [12] of 65.6% and a viability, T/C [25] of 79.3%. It also gave a viability, T/C [26] of 78.4%, a viability, T/C [27] of 72.9% and a viability, T/C [28] of 70.3%. The viability, T/C [15] was 62.5%, the viability, T/C [16] was 68% and the viability, T/C [29] was 60.2%. For the same compound, the viability, T/C [30] was 78%, the viability, T/C [31] was 63.1% and the viability, T/C [32] was 46.6%. For the same compound, the viability, T/C [19] was 49.6%, the viability, T/C [20] was 48.3% and the viability, T/C [33] was 48.4%. The viability, T/C [34] was 41.6%, the viability, T/C [35] was 32.3% and the viability, T/C [36] was 31.2%.
For `CC1(C)CCC(CN2CCN(c3ccc(C(=O)NS(=O)(=O)c4ccc(NCC5CCOCC5)c([N+](=O)[O-])c4)c(Oc4cnc5[nH]ccc5c4)c3)CC2)=C(c2ccc(Cl)cc2)C1` + Cc1nc(NC(=O)N2CCCC2C(N)=O)sc1-c1ccnc(C(C)(C)C(F)(F)F)c1, the IC50 (second compound 0.0316 µM) was greater than 10000 nM, the IC50 (second compound 0.1 µM) was 8830 nM and the IC50 (second compound 0.316 µM) was 8520 nM. It also gave an IC50 (second compound 1 µM) greater than 10000 nM, an IC50 (second compound 3.16 µM) of 4670 nM and an IC50 (second compound 10 µM) of 2630 nM. For the same compound, the viability, T/C [7] was 103%, the viability, T/C [8] was 91.3% and the viability, T/C [21] was 88.8%. It also gave a viability, T/C [22] of 86%, a viability, T/C [23] of 104% and a viability, T/C [24] of 55.1%. It also gave a viability, T/C [11] of 88.9%, a viability, T/C [12] of 83.6% and a viability, T/C [25] of 86.4%. It also gave a viability, T/C [26] of 86.8%, a viability, T/C [27] of 77.8% and a viability, T/C [28] of 46.5%. The viability, T/C [15] was 88.2%, the viability, T/C [16] was 76.8% and the viability, T/C [29] was 73%. For the same compound, the viability, T/C [30] was 66.1%, the viability, T/C [31] was 75.9% and the viability, T/C [32] was 46%. It also gave a viability, T/C [19] of 86.1%, a viability, T/C [20] of 73.3% and a viability, T/C [33] of 72.1%. For the same compound, the viability, T/C [34] was 61.5%, the viability, T/C [35] was 69.2% and the viability, T/C [36] was 52.3%. For the same compound, the viability, T/C [37] was 57.1%, the viability, T/C [38] was 71.8% and the viability, T/C [39] was 63%. It also gave a viability, T/C [40] of 60.5%, a viability, T/C (second compound 3.16 µM, first compound 3.16 µM) of 59% and a viability, T/C (second compound 3.16 µM, first compound 10 µM) of 33.4%. It also gave a viability, T/C [41] of 63.9%, a viability, T/C [42] of 50.3% and a viability, T/C [43] of 62.7%. It also gave a viability, T/C [44] of 48.8%, a viability, T/C (second compound 10 µM, first compound 3.16 µM) of 53% and a viability, T/C (second compound 10 µM, first compound 10 µM) of 38.6%.
In the case of `CCN1CCN(Cc2ccc(Nc3ncc(F)c(-c4cc(F)c5nc(C)n(C(C)C)c5c4)n3)nc2)CC1` + Cc1nc(NC(=O)N2CCCC2C(N)=O)sc1-c1ccnc(C(C)(C)C(F)(F)F)c1, the IC50 (second compound 0.0316 µM) is reported as greater than 1000 nM, the IC50 (second compound 0.1 µM) is reported as greater than 1000 nM and the IC50 (second compound 0.316 µM) is reported as greater than 1000 nM. It also gave an IC50 (second compound 1 µM) of 162 nM, an IC50 (second compound 3.16 µM) of 77.4 nM and an IC50 (second compound 10 µM) of less than 3.16 nM. For the same compound, the viability, T/C [5] was 107%, the viability, T/C [6] was 64.6% and the viability, T/C [7] was 90.9%. For the same compound, the viability, T/C [8] was 77%, the viability, T/C [21] was 77.8% and the viability, T/C [22] was 64.7%. It also gave a viability, T/C [9] of 109%, a viability, T/C [10] of 72.5% and a viability, T/C [11] of 90.5%. It also gave a viability, T/C [12] of 67.4%, a viability, T/C [25] of 54.3% and a viability, T/C [26] of 58.9%. The viability, T/C [13] was 75.8%, the viability, T/C [14] was 82.1% and the viability, T/C [15] was 64.2%. For the same compound, the viability, T/C [16] was 58.4%, the viability, T/C [29] was 60.8% and the viability, T/C [30] was 57.4%. The viability, T/C [17] was 56%, the viability, T/C [18] was 72% and the viability, T/C [19] was 58.4%. For the same compound, the viability, T/C [20] was 46.1%, the viability, T/C [33] was 49.4% and the viability, T/C [34] was 32.8%. The viability, T/C (second compound 3.16 µM, first compound 0.00316 µM) was 62.3%, the viability, T/C (second compound 3.16 µM, first compound 0.01 µM) was 78.5% and the viability, T/C [37] was 59%. For the same compound, the viability, T/C [38] was 49%, the viability, T/C [39] was 44.1% and the viability, T/C [40] was 41.5%. The viability, T/C (second compound 10 µM, first compound 0.00316 µM) was 47.1%, the viability, T/C (second compound 10 µM, first compound 0.01 µM) was 49% and the viability, T/C [41] was 45.4%. It also gave a viability, T/C [42] of 37%, a viability, T/C [43] of 40.3% and a viability, T/C [44] of 27.1%.
